Where two headings read alike, the source gives them in different places.
Columns and labels:
[1] = biological target: Kv1.3 potassium channels in Jurkat T lymphocytes (Homo sapiens, UniProt P22001); type: cell-based
[2] = test system: rat brain membrane K channels (primarily Kv1.2); type: binding; conditions: for IC50: read-out: IC50 Rat Brain 125I-CTX
[3] = biological target: rat brain membrane K channels (delayed rectifier, primarily Kv1.2) (rat) (UniProt P63142); experiment: 125I-DTX displacement, rat brain membranes
Chain of rat brain membrane K channels (delayed rectifier, primarily Kv1.2) (rat) (P63142 whole entry): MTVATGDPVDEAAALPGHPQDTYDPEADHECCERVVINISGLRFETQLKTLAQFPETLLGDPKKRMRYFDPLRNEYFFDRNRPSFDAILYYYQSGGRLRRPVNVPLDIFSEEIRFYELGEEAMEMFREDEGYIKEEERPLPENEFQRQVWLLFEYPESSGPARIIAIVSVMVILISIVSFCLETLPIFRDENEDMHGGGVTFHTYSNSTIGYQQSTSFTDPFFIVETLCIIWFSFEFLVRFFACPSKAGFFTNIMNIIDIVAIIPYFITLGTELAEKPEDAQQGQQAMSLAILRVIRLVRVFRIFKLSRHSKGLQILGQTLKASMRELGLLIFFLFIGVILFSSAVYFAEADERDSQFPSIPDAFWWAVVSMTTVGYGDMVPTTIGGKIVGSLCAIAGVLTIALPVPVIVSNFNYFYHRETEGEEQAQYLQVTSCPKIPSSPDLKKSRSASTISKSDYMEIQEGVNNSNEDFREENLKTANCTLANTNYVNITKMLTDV

[4] = biological target: rat brain membrane K channels (delayed rectifier, primarily Kv1.2) (rat) (UniProt P63142)
[5] = biological target: Kv1.3 potassium channel of human T lymphocytes (human) (UniProt P22001)
Chain of Kv1.3 potassium channel of human T lymphocytes (human) (P22001 whole entry): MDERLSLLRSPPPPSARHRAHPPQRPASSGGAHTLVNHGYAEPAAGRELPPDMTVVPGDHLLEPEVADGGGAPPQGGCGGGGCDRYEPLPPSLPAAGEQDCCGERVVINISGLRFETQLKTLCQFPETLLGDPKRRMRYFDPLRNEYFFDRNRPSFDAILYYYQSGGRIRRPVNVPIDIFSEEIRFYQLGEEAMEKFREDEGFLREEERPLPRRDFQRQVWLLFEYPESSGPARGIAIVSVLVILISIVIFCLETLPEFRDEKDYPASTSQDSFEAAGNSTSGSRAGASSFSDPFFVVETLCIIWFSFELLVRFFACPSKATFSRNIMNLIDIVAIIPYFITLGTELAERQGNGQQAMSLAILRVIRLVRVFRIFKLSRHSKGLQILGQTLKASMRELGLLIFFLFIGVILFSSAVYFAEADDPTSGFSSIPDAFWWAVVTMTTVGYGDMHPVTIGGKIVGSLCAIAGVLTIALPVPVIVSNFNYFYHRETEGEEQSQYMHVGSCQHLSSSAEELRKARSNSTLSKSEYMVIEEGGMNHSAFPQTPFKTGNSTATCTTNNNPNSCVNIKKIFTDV

[6] = biological target: cloned Kv1.3 channel, wild type
[7] = biological target: rat brain membrane K channels (delayed rectifier, primarily Kv1.2) (rat) (UniProt P63142); remark: listed apart in the source
[8] = biological target: rat brain membrane K channels (delayed rectifier, primarily Kv1.2) (rat) (UniProt P63142); remark: listed apart in the source

Chain of Kv1.3 potassium channels in Jurkat T lymphocytes (P22001 whole entry): as above

## CC[C@H](C)[C@@H]1NC(=O)[C@@H](NC(=O)[C@H](CO)NC(=O)[C@@H](N)CCCNC(=N)N)CSSC[C@@H](C(=O)O)NC(=O)[C@H]([C@@H](C)O)NC(=O)CNC(=O)[C@@H]2CSSC[C@@H]3NC(=O)[C@H](CCC(N)=O)NC(=O)[C@H](Cc4ccccc4)NC(=O)[C@H](C)NC(=O)[C@H]([C@@H](C)O)NC(=O)[C@H](CSSC[C@H](NC(=O)[C@H](Cc4ccccc4)NC(=O)[C@H](CO)NC(=O)[C@H](CC(C)C)NC(=O)[C@H](CCCNC(=N)N)NC(=O)[C@H](Cc4ccc(O)cc4)NC(=O)[C@H](CCCCN)NC(=O)[C@H](CCSC)NC(=O)[C@H](CO)NC(=O)[C@H](Cc4c[nH]cn4)NC(=O)[C@H](CCCCN)NC3=O)C(=O)N[C@@H](CCCNC(=N)N)C(=O)N[C@@H](CCCCN)C(=O)N[C@@H]([C@@H](C)O)C(=O)N2)NC(=O)[C@H](CCCNC(=N)N)NC(=O)[C@H](CO)NC(=O)[C@H](CCC(N)=O)NC(=O)[C@@H]2CCCN2C(=O)[C@H]([C@@H](C)CC)NC(=O)[C@H]([C@@H](C)O)NC(=O)[C@H](CC(=O)O)NC1=O [K9Q]
[1]
  Equipotent Molar Ration (Analog IC50 /ShK IC50) Lymphocyte: 9.6
  reduction of affinity (IC50) for Kv1.3 relative to ShK toxin: 9.6 fold
[2]
  Equipotent Molar Ration (Analog IC50 /ShK IC50) Rat brain: 0.6
  IC50: 11 nM

## CC[C@H](C)[C@@H]1NC(=O)[C@@H](NC(=O)[C@H](CO)NC(=O)[C@@H](N)CCCNC(=N)N)CSSC[C@@H](C(=O)O)NC(=O)[C@H]([C@@H](C)O)NC(=O)CNC(=O)[C@@H]2CSSC[C@@H]3NC(=O)[C@H](CCC(N)=O)NC(=O)[C@H](Cc4ccccc4)NC(=O)[C@H](C)NC(=O)[C@H]([C@@H](C)O)NC(=O)[C@H](CSSC[C@H](NC(=O)[C@H](Cc4ccccc4)NC(=O)[C@H](CO)NC(=O)[C@H](CC(C)C)NC(=O)[C@H](CCCNC(=N)N)NC(=O)[C@H](Cc4ccc(O)cc4)NC(=O)[C@H](CCC(=O)O)NC(=O)[C@H](CCSC)NC(=O)[C@H](CO)NC(=O)[C@H](Cc4c[nH]cn4)NC(=O)[C@H](CCCCN)NC3=O)C(=O)N[C@@H](CCCNC(=N)N)C(=O)N[C@@H](CCCCN)C(=O)N[C@@H]([C@@H](C)O)C(=O)N2)NC(=O)[C@H](CCCNC(=N)N)NC(=O)[C@H](CO)NC(=O)[C@H](CCCCN)NC(=O)[C@@H]2CCCN2C(=O)[C@H]([C@@H](C)CC)NC(=O)[C@H]([C@@H](C)O)NC(=O)[C@H](CC(=O)O)NC1=O [K22E]
[2]
  Equipotent Molar Ratio (Analog IC50 /ShK IC50): 726.0
  Free Energy Differ. of Binding ΔF: 3.86
  binding affinity for rat brain K channels relative to wild-type ShK toxin, in words: greatly reduced affinity

## CC[C@H](C)[C@@H]1NC(=O)[C@@H](NC(=O)[C@H](CO)NC(=O)[C@@H](N)CCCNC(=N)N)CSSC[C@@H](C(=O)O)NC(=O)[C@H]([C@@H](C)O)NC(=O)CNC(=O)[C@@H]2CSSC[C@@H]3NC(=O)[C@H](CCC(N)=O)NC(=O)[C@H](Cc4ccccc4)NC(=O)[C@H](C)NC(=O)[C@H]([C@@H](C)O)NC(=O)[C@H](CSSC[C@H](NC(=O)[C@H](Cc4ccccc4)NC(=O)[C@H](CO)NC(=O)[C@H](CC(C)C)NC(=O)[C@H](CCCNC(=N)N)NC(=O)[C@H](Cc4ccc(O)cc4)NC(=O)[C@H](CCCNC(=N)N)NC(=O)[C@H](CCSC)NC(=O)[C@H](CO)NC(=O)[C@H](Cc4c[nH]cn4)NC(=O)[C@H](CCCCN)NC3=O)C(=O)N[C@@H](CCCNC(=N)N)C(=O)N[C@@H](CCCCN)C(=O)N[C@@H]([C@@H](C)O)C(=O)N2)NC(=O)[C@H](CCCNC(=N)N)NC(=O)[C@H](CO)NC(=O)[C@H](CCCCN)NC(=O)[C@@H]2CCCN2C(=O)[C@H]([C@@H](C)CC)NC(=O)[C@H]([C@@H](C)O)NC(=O)[C@H](CC(=O)O)NC1=O [K22R]
[1]
  Equipotent Molar Ration (Analog IC50 /ShK IC50) Lymphocyte: 225
  reduction of affinity (IC50) for Kv1.3 relative to ShK toxin: > 225 fold
[2]
  Equipotent Molar Ration (Analog IC50 /ShK IC50) Rat brain: > 500
  IC50 Ratio: > 500
  ΔF: > 3.65
  IC50: 2000 nM

## CC[C@H](C)[C@@H]1NC(=O)[C@@H](NC(=O)[C@H](CO)NC(=O)[C@@H](N)CCCNC(=N)N)CSSC[C@@H](C(=O)O)NC(=O)[C@H]([C@@H](C)O)NC(=O)CNC(=O)[C@@H]2CSSC[C@@H]3NC(=O)[C@H](CCC(N)=O)NC(=O)[C@H](Cc4ccccc4)NC(=O)[C@H](C)NC(=O)[C@H]([C@@H](C)O)NC(=O)[C@H](CSSC[C@H](NC(=O)[C@H](Cc4ccccc4)NC(=O)[C@H](CO)NC(=O)[C@H](C)NC(=O)[C@H](CCCNC(=N)N)NC(=O)[C@H](Cc4ccc(O)cc4)NC(=O)[C@H](CCCCN)NC(=O)[C@H](CCSC)NC(=O)[C@H](CO)NC(=O)[C@H](Cc4c[nH]cn4)NC(=O)[C@H](CCCCN)NC3=O)C(=O)N[C@@H](CCCNC(=N)N)C(=O)N[C@@H](CCCCN)C(=O)N[C@@H]([C@@H](C)O)C(=O)N2)NC(=O)[C@H](CCCNC(=N)N)NC(=O)[C@H](CO)NC(=O)[C@H](CCCCN)NC(=O)[C@@H]2CCCN2C(=O)[C@H]([C@@H](C)CC)NC(=O)[C@H]([C@@H](C)O)NC(=O)[C@H](CC(=O)O)NC1=O [L25A]
[2]
  Difference of Free Energy of Binding: 0.20
  IC50 Ratio: 1.4

## CCCC[C@@H]1NC(=O)[C@H](CO)NC(=O)[C@H](Cc2c[nH]cn2)NC(=O)[C@H](CCCCN)NC(=O)[C@@H]2CSSC[C@@H]3NC(=O)[C@H]([C@@H](C)O)NC(=O)[C@H](CCCCN)NC(=O)[C@H](CCCNC(=N)N)NC(=O)[C@H](CSSC[C@H](NC(=O)[C@H](CCCNC(=N)N)NC(=O)[C@H](CO)NC(=O)[C@H](CCCCN)NC(=O)[C@@H]4CCCN4C(=O)[C@H]([C@@H](C)CC)NC(=O)[C@H]([C@@H](C)O)NC(=O)[C@H](CC(=O)O)NC(=O)[C@H]([C@@H](C)CC)NC(=O)[C@@H](NC(=O)[C@H](CO)NC(=O)[C@@H](N)CCCNC(=N)N)CSSC[C@@H](C(=O)O)NC(=O)[C@H]([C@@H](C)O)NC(=O)CNC3=O)C(=O)N[C@@H]([C@@H](C)O)C(=O)N[C@@H](C)C(=O)N[C@@H](Cc3ccccc3)C(=O)N[C@@H](CCC(N)=O)C(=O)N2)NC(=O)[C@H](Cc2ccccc2)NC(=O)[C@H](CO)NC(=O)[C@H](CC(C)C)NC(=O)[C@H](CCCNC(=N)N)NC(=O)[C@H](Cc2ccc(O)cc2)NC(=O)[C@H](CCCCN)NC1=O [M21Nle]
[1]
  Equipotent Molar Ration (Analog IC50 /ShK IC50) Lymphocyte: 0.80
[2]
  Equipotent Molar Ration (Analog IC50 /ShK IC50) Rat brain: 0.8
  effect on binding to either K channel subtype: no significant affect on binding
  IC50: 9 nM

## CC[C@H](C)[C@@H]1NC(=O)[C@@H](NC(=O)[C@H](CO)NC(=O)[C@@H](N)CCCNC(=N)N)CSSC[C@@H](C(=O)O)NC(=O)[C@H]([C@@H](C)O)NC(=O)CNC(=O)[C@@H]2CSSC[C@@H]3NC(=O)[C@H](CCC(N)=O)NC(=O)[C@H](Cc4ccccc4)NC(=O)[C@H](C)NC(=O)[C@H]([C@@H](C)O)NC(=O)[C@H](CSSC[C@H](NC(=O)[C@H](Cc4ccccc4)NC(=O)[C@H](CO)NC(=O)[C@H](CC(C)C)NC(=O)[C@H](CCCNC(=N)N)NC(=O)[C@H](CO)NC(=O)[C@H](CCCCN)NC(=O)[C@H](CCSC)NC(=O)[C@H](CO)NC(=O)[C@H](Cc4c[nH]cn4)NC(=O)[C@H](CCCCN)NC3=O)C(=O)N[C@@H](CCCNC(=N)N)C(=O)N[C@@H](CCCCN)C(=O)N[C@@H]([C@@H](C)O)C(=O)N2)NC(=O)[C@H](CCCNC(=N)N)NC(=O)[C@H](CO)NC(=O)[C@H](CCCCN)NC(=O)[C@@H]2CCCN2C(=O)[C@H]([C@@H](C)CC)NC(=O)[C@H]([C@@H](C)O)NC(=O)[C@H](CC(=O)O)NC1=O [Y23S]
[2]
  IC50: > 5000 nM

## RSCADTIPKSRCTAAQCKHSMKYRLSFCRKRCGTC [A4 + A15]
[2]
  Equipotent Molar Ratio (Analog IC50 /ShK IC50): 0.5
  Free Energy Differ. of Binding ΔF: -0.41
  IC50 Ratio: 0.5
  binding affinity for rat brain K channels relative to wild-type ShK toxin, in words: more potent than the wild-type toxin
  ΔF: -0.41

## RSCIDSTIPKSRCTAAQKHSMKYRASFCRKTCGTC [A15 + A25]
[2]
  Equipotent Molar Ratio (Analog IC50 /ShK IC50): 2.1
  Free Energy Differ. of Binding ΔF: 0.43
  IC50 Ratio: 2.1
  ΔF: 0.43

## RSCIDTIPKSRCTAPQCKHSMKYRLSFCRATCGTC [K30A]
[2]
  Difference of Free Energy of Binding: 0.98
  IC50 Ratio: 5.3
  increase in relative free energy of binding: approximately 1 kcal/mol

## RSCIDTIPKSRCTAPQCKHSMKYRLSFCRKACGTC [T31A]
[2]
  Difference of Free Energy of Binding: -0.30
  IC50 Ratio: 0.6
  binding affinity for rat brain K channels relative to wild-type ShK toxin, in words: increased affinities

## RSCIDTIPKSRCTAPQCKHSMKYRLSFCRKTCGAC [T34A]
[2]
  Difference of Free Energy of Binding: 0.0
  IC50 Ratio: 1.0

## ShK I7A (peptide)
[3]
  IC50 ratio (analog IC50/ShK IC50): 5.2
  free energy difference of binding: 0.96 kcal/mol

## ShK K9A (peptide)
[3]
  IC50 ratio (analog IC50/ShK IC50): 1.3
  free energy difference of binding: 0.15 kcal/mol

## ShK K9Q (peptide)
[4]
  IC50: 11 nM
[3]
  IC50 ratio (analog IC50/ShK IC50): 0.6
[5]
  equipotent molar ratio (analog IC50/ShK IC50) for block of Kv1.3 current: 9.6

## ShK K22 citrulline (peptide)
[4]
  IC50: 2000 nM

## ShK K22Homocit (peptide)
[6]
  Kd: > 100 nM
[3]
  IC50 ratio (analog IC50/ShK IC50): > 500
[7]
  IC50 ratio (analog IC50/ShK IC50): > 500
  free energy difference of binding: > 3.65 kcal/mol

## ShK K22Nle (peptide)
[3]
  IC50 ratio (analog IC50/ShK IC50): > 250
[7]
  IC50 ratio (analog IC50/ShK IC50): > 250
  free energy difference of binding: > 3.23 kcal/mol
[5]
  equipotent molar ratio (analog IC50/ShK IC50) for block of Kv1.3 current: > 23

## ShK M21Nle (peptide)
[4]
  IC50: 9 nM
[3]
  IC50 ratio (analog IC50/ShK IC50): 0.8
[5]
  equipotent molar ratio (analog IC50/ShK IC50) for block of Kv1.3 current: 0.8

## ShK P8A (peptide)
[3]
  IC50 ratio (analog IC50/ShK IC50): 1.9
  free energy difference of binding: 0.38 kcal/mol

## ShK R1A (peptide)
[3]
  IC50 ratio (analog IC50/ShK IC50): 1.5
  free energy difference of binding: 0.23 kcal/mol

## ShK Y23Apa (peptide)
[6]
  Kd: 0.12 nM
[3]
  IC50 ratio (analog IC50/ShK IC50): 0.8
[8]
  IC50 ratio (analog IC50/ShK IC50): 0.8
  free energy difference of binding: -0.13 kcal/mol

## ShK Y23Bpa (peptide)
[8]
  IC50 ratio (analog IC50/ShK IC50): 3.76
  free energy difference of binding: 0.78 kcal/mol

## ShK Y23Cha (peptide)
[3]
  IC50 ratio (analog IC50/ShK IC50): 8.8
  free energy difference of binding: 1.27 kcal/mol
[8]
  IC50 ratio (analog IC50/ShK IC50): 8.8
  free energy difference of binding: 1.27 kcal/mol

## ShK Y23Nph (peptide)
[6]
  Kd: 0.2 nM
[3]
  IC50 ratio (analog IC50/ShK IC50): 1
[8]
  IC50 ratio (analog IC50/ShK IC50): 1
  free energy difference of binding: 0 kcal/mol

From patent US6077680A (The University of Florida, dated 2000)
